Assay results published in ChEMBL document CHEMBL4725326, “Synthesis, α-glucosidase inhibition, and molecular docking studies of novel N-substituted hydrazide derivatives of atranorin as antidiabetic agents” (Bioorg Med Chem Lett, 2020).

Columns and labels:
[1] = Inhibition of alpha-glucosidase (unknown origin); set-up: species or system Homo sapiens
HEK293 = test: Cytotoxicity against HEK293 cells assessed as reduction in cell viability; format: cell-based; conditions: Homo sapiens

| Structure (SMILES) | IC50 [1] [µM] | IC50 (HEK293) [µM] |
| --- | --- | --- |
| COC(=O)c1c(C)cc(OC(=O)c2c(C)cc(O)c(/C=N/NC(=O)CSc3nc4ccccc4s3)c2O)c(C)c1O | 9.12 | 70.1 |
| COC(=O)c1c(C)cc(OC(=O)c2c(C)cc(O)c(/C=N/NC(=O)c3cc(Cl)ccc3O)c2O)c(C)c1O | 9.91 | 63.2 |
| COC(=O)c1c(C)cc(OC(=O)c2c(C)cc(O)c(/C=N/NC(=O)COc3cc4ccccc4o3)c2O)c(C)c1O | 39.7 | 84.4 |
| COC(=O)c1c(C)cc(OC(=O)c2c(C)cc(O)c(/C=N/NC(=O)c3cc(I)ccc3O)c2O)c(C)c1O | 41.2 | 94.1 |
| COC(=O)c1c(C)cc(OC(=O)c2c(C)cc(O)c(/C=N/NC(=O)Cc3ccccc3)c2O)c(C)c1O | 6.67 | > 100 |
| C[C@H]1O[C@H](O[C@H]2[C@H](O)[C@@H](O)[C@@H](O[C@H]3[C@H](O)[C@@H](O)C(O)O[C@@H]3CO)O[C@@H]2CO)[C@H](O)[C@@H](O)[C@@H]1N[C@H]1C=C(CO)[C@@H](O)[C@H](O)[C@H]1O (some centres not stated) [ACARBOSE] | 93.6 | – |
| COC(=O)c1c(C)cc(OC(=O)c2c(C)cc(O)c(C=O)c2O)c(C)c1O [ATRANORIN] | > 100 | – |
| COc1cccc2c1C(=O)c1c(O)c3c(c(O)c1C2=O)C[C@@](O)(C(=O)CO)C[C@@H]3O[C@H]1C[C@H](N)[C@H](O)[C@H](C)O1 [DOXORUBICIN] | – | 7.92 |

Continued, in another order:

| IC50 [1] [µM] | Structure (SMILES) | IC50 (HEK293) [µM] |
| --- | --- | --- |
| 54.7 | COC(=O)c1c(C)cc(OC(=O)c2c(C)cc(O)c(/C=N/NC(=O)COc3ccc(C)cc3)c2O)c(C)c1O | > 100 |
| 53.3 | COC(=O)c1c(C)cc(OC(=O)c2c(C)cc(O)c(/C=N/NC(=O)COc3ccccc3C)c2O)c(C)c1O | > 100 |
| 40.6 | COC(=O)c1c(C)cc(OC(=O)c2c(C)cc(O)c(/C=N/NC(=O)COc3cccc(C)c3)c2O)c(C)c1O | > 100 |
| 17.3 | COC(=O)c1c(C)cc(OC(=O)c2c(C)cc(O)c(/C=N/NC(=O)COc3ccc(Br)cc3)c2O)c(C)c1O | > 100 |
| 31.5 | COC(=O)c1c(C)cc(OC(=O)c2c(C)cc(O)c(/C=N/NC(=O)CNc3ccc(C)cc3)c2O)c(C)c1O | > 100 |
| 18.9 | COC(=O)c1c(C)cc(OC(=O)c2c(C)cc(O)c(/C=N/NC(=O)COc3ccc4ccccc4c3)c2O)c(C)c1O | 52.7 |
| 28.1 | COC(=O)c1c(C)cc(OC(=O)c2c(C)cc(O)c(/C=N/NC(=O)COc3cc(C)ccc3C(C)C)c2O)c(C)c1O | > 100 |
